Test results taken from ChEMBL document CHEMBL1201862, “PubChem BioAssay data set” (2004).
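Method: 48-hour compound exposure of cells in 96-well plates, five concentrations, linear interpolation of endpoints. GI50 marks 50% less growth.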 Active and inactive are the calls of the source. Rule as the data show it: active = GI50 up to about 1.1 µM and inactive = higher.

How the values were obtained:
Assay in all cases: growth of human tumour cells (NCI), 48 h
[1] = system: U-251
[2] = system: 786-0
[3] = system: SN12C
[4] = system: SF-268
[5] = system: LOX IMVI
[6] = system: NCI/ADR-RES
[7] = system: A549
[8] = system: MDA-MB-435
[9] = system: RXF 393
[10] = system: SK-MEL-28
[11] = system: K562
[12] = system: SW-620
[13] = system: HCC 2998
[14] = system: RPMI-8226
[15] = system: BT-549
[16] = system: HOP-62
[17] = system: NCI-H460
[18] = system: OVCAR-5
[19] = system: SR
[20] = system: SK-MEL-5
[21] = system: SNB-75
[22] = system: SF-295
[23] = system: DU-145
[24] = system: MCF7
[25] = system: KM12
[26] = system: HCT-116
[27] = system: HCT-15
[28] = system: OVCAR-3
[29] = system: COLO 205
[30] = system: SNB-19
[31] = system: MOLT-4
[32] = system: HL-60
[33] = system: UO-31
[34] = system: CAKI-1
[35] = system: MDA-N
[36] = system: HT-29
[37] = system: OVCAR-8
[38] = system: EKVX
[39] = system: IGROV-1
[40] = system: SF-539
[41] = system: TK-10
[42] = system: SK-MEL-2
[43] = system: PC-3
[44] = system: HOP-92
[45] = system: T47D
[46] = system: NCI-H23
[47] = system: OVCAR-4
[48] = system: Hs-578T
[49] = system: A498
[50] = system: ACHN
[51] = system: SK-OV-3
[52] = system: M14
[53] = system: NCI-H522
[54] = system: UACC-257
[55] = system: UACC-62
[56] = system: Malme-3M
[57] = system: MDA-MB-231
[58] = system: CCRF-CEM
[59] = system: NCI-H226

C=C(CO)C(=O)OC1CC(=C)C2CC(O)C(C)C2C2OC(=O)C(=C)C12 (stereo not given)
GI50 [1]: 26.7 µM (inactive)
GI50 [2]: 37.3 µM (inactive)
GI50 [3]: 18.2 µM (inactive)
GI50 [4]: 20.7 µM (inactive)
GI50 [5]: 29.9 µM (inactive)
GI50 [6]: 44.7 µM (inactive)
GI50 [7]: 28.8 µM (inactive)
GI50 [8]: 21.2 µM (inactive)
GI50 [9]: 20 µM (inactive)
GI50 [10]: 24.3 µM (inactive)
GI50 [11]: 31.3 µM (inactive)
GI50 [12]: 22.9 µM (inactive)
GI50 [13]: 21.7 µM (inactive)
GI50 [14]: 24.5 µM (inactive)
GI50 [15]: 14.9 µM (inactive)
GI50 [16]: 19.4 µM (inactive)
GI50 [17]: 35.8 µM (inactive)
GI50 [18]: 30.9 µM (inactive)
GI50 [19]: 19.3 µM (inactive)
GI50 [20]: 24.3 µM (inactive)
GI50 [21]: 19 µM (inactive)
GI50 [22]: 19.4 µM (inactive)
GI50 [23]: 42.5 µM (inactive)
GI50 [24]: 18.3 µM (inactive)
GI50 [25]: 18 µM (inactive)
GI50 [26]: 33.2 µM (inactive)
GI50 [27]: 19.1 µM
GI50 [28]: 16 µM (inactive)
GI50 [29]: 34.2 µM (inactive)
GI50 [30]: 22.9 µM (inactive)
GI50 [31]: 25.2 µM (inactive)
GI50 [32]: 25.8 µM (inactive)
GI50 [33]: 16.2 µM (inactive)
GI50 [34]: 19.3 µM (inactive)
GI50 [35]: 19.3 µM (inactive)
GI50 [36]: 24.7 µM (inactive)
GI50 [37]: 27.3 µM (inactive)
GI50 [38]: 40.9 µM (inactive)
GI50 [39]: 18.9 µM (inactive)
GI50 [40]: 18 µM (inactive)
GI50 [41]: 16.3 µM (inactive)
GI50 [42]: 16.1 µM (inactive)
GI50 [43]: 31.6 µM (inactive)
GI50 [44]: 32.4 µM (inactive)
GI50 [45]: 49.4 µM (inactive)
GI50 [46]: > 100 µM (inactive)
GI50 [47]: 61.1 µM (inactive)
GI50 [48]: 18.4 µM (inactive)
GI50 [49]: 39.6 µM (inactive)
GI50 [50]: 18.4 µM (inactive)
GI50 [51]: 30.4 µM (inactive)
GI50 [52]: 17.3 µM (inactive)
GI50 [53]: 26.3 µM (inactive)
GI50 [54]: 15.6 µM (inactive)
GI50 [55]: 16.6 µM (inactive)
GI50 [56]: 21.3 µM (inactive)
GI50 [57]: 20 µM (inactive)
GI50 [58]: 31.2 µM (inactive)

CCOC(=O)c1sc2nc(SC)nc3c2c1NCN3c1ccc2c(c1)OCO2
GI50 [1]: 7.03 µM (inactive)
GI50 [2]: 4.34 µM (inactive)
GI50 [3]: 39.4 µM (inactive)
GI50 [4]: 3.42 µM (inactive)
GI50 [5]: 23.8 µM (inactive)
GI50 [6]: 8.77 µM (inactive)
GI50 [7]: 7.83 µM (inactive)
GI50 [8]: 14.8 µM (inactive)
GI50 [9]: 3.14 µM (inactive)
GI50 [10]: 8.04 µM (inactive)
GI50 [11]: 35 µM (inactive)
GI50 [12]: 17.2 µM (inactive)
GI50 [13]: 44.7 µM (inactive)
GI50 [14]: 24.2 µM (inactive)
GI50 [15]: 30.1 µM (inactive)
GI50 [16]: 5.93 µM (inactive)
GI50 [18]: 97.5 µM (inactive)
GI50 [19]: 39.3 µM (inactive)
GI50 [20]: 67.5 µM (inactive)
GI50 [22]: 10.9 µM (inactive)
GI50 [23]: 12.1 µM (inactive)
GI50 [24]: 16.7 µM (inactive)
GI50 [25]: > 100 µM (inactive)
GI50 [59]: 25.8 µM (inactive)
GI50 [26]: 27.5 µM (inactive)
GI50 [27]: 52.5 µM
GI50 [28]: 10.8 µM (inactive)
GI50 [29]: 35.2 µM (inactive)
GI50 [30]: 11.4 µM (inactive)
GI50 [31]: 26.1 µM (inactive)
GI50 [32]: 52 µM (inactive)
GI50 [33]: 15.5 µM (inactive)
GI50 [34]: 58.1 µM (inactive)
GI50 [35]: 44.3 µM (inactive)
GI50 [36]: 31.3 µM (inactive)
GI50 [37]: 5.41 µM (inactive)
GI50 [38]: 42.2 µM (inactive)
GI50 [39]: 26.1 µM (inactive)
GI50 [40]: 21.6 µM (inactive)
GI50 [41]: 17.2 µM (inactive)
GI50 [42]: 18.3 µM (inactive)
GI50 [43]: 14.3 µM (inactive)
GI50 [44]: 12.5 µM (inactive)
GI50 [45]: 18.9 µM (inactive)
GI50 [46]: 41.9 µM (inactive)
GI50 [47]: 5.2 µM (inactive)
GI50 [48]: 3.58 µM (inactive)
GI50 [49]: 33.3 µM (inactive)
GI50 [50]: 5.94 µM (inactive)
GI50 [51]: 10.7 µM (inactive)
GI50 [52]: 15.5 µM (inactive)
GI50 [53]: 31.1 µM (inactive)
GI50 [54]: > 100 µM (inactive)
GI50 [55]: 12.2 µM (inactive)
GI50 [56]: 17.9 µM (inactive)
GI50 [57]: 13.4 µM (inactive)
GI50 [58]: 14.6 µM (inactive)
